Results on 2 molecules are retold here after patent US9597292B2, “Oral dosage forms of methyl hydrogen fumarate and prodrugs thereof” (XenoPort, Inc., priority 2012, dated 2017).

Structures are written as SMILES.

Holding throughout (assay type): in vivo, human
Data set [1] is described as follows: Safety and tolerability, adverse events in single-dose food effect study (Example 15). Particulars: for Feeling Hot (subjects reporting) / Flushing (subjects reporting): 12 subjects. An excerpt: (§1) Twelve healthy adult volunteers (males and females) participated in the study. All twelve subjects received a dosage form of Example 9, once in a fed condition and once in a fasted condition, with a two-week washout between treatments. The fasted dosing was achieved by dosing the subject following an overnight fast while the fed dosing was achieved by dosing the subject after consuming a high fat-content breakfast.

Data set [2] in a line: Safety and tolerability, adverse events in single-dose food effect study (Example 8). Particulars: for Feeling Hot (subjects reporting) / Flushing (subjects reporting): 12 subjects. An excerpt:
(§2) Twenty-four healthy adult volunteers (males and females) participated in the study. Twelve of the subjects received a dosage form of Example 1, once in a fed condition and once in a fasted condition, with a two-week washout between treatments. Twelve other subjects received a dosage form of Example 2, once in a fed condition and once in a fasted condition, with a two-week washout between treatments. The fasted dosing was achieved by dosing the subject following an overnight fast while the fed dosing was achieved by dosing the subject after consuming a high fat-content breakfast.

A short description of data set [3]: Single-dose food effect pharmacokinetic study of sustained release dosage form in healthy adult subjects (Example 15). Particulars: promoiety after oral dosing of the formulation.
Description: as §1
(§3) Urine samples were collected from all subjects prior to dosing, and complete urine output was obtained at the 0-4, 4-8, 8-12, 12-24, 24-36, 36-48, 48-72, 72-96 and 96-120 hour intervals after dosing. Blood samples were quenched immediately with acetonitrile and frozen.

The nature of data set [4]: Single-dose food effect pharmacokinetic study in healthy adult subjects (Example 8). The conditions noted are these: promoiety after oral dosing of Example 2 formulation.
Description: as §2, §3

Setting [5] is: single 200 mg oral dose, fed and fasted.

For the molecule `CCN(CC)C(=O)COC(=O)/C=C/C(=O)OC` [(N,N-Diethylcarbamoyl)methyl methyl (2E)but-2-ene-1,4-dioate], the “Feeling Hot (subjects reporting)” value in data set [1] (Fasted), in data set [1] (Fed), in data set [2] (Fasted) and in data set [2] (Fed) was “no subjects” in each case. In addition, the “Flushing (subjects reporting)” value in data set [1] (Fasted) was “No subjects”; in data set [1] (Fed) it was “Two”; in data set [2] (Fasted), “No subjects”; in data set [2] (Fed), “One”. Moreover, the “tolerability during the trial” value in data set [1] (setting [5]) and in data set [2] (setting [5]) was “well tolerated” throughout.

With `CCN(CC)C(=O)CO` [Promoiety], the “half life of clearance from blood” value in data set [3] and in data set [4] was “around 3 hours” throughout.
